Series [1] can be described thus: Compound induced cellular toxicity in HepG2 cells (ATPlite). It is filed as cell-based. To be noted: human, three days, ATPlite 1 Step, concentration reducing total ATP levels by 50% relative to no drug controls. How it is done: At day 3, post seeding cells are treated with ATPlite 1 Step according to the manufacturer's instructions.
Another series relates to 2.2.15 cells. Briefly: Antiviral activity in 2.2.15 cells: reduction of viral product accumulation (qPCR, HBsAg/HBeAg ELISA). The class given is cell-based, HBV. To be noted: Hepatitis B virus, 120 h, day 5 post treatment, concentration reducing viral product accumulation in cell lysates or supernatants by 50% relative to no drug controls. How it is done: 2.2.15 cells are passaged upon attaining confluency in DMEM/F12 media in the presence of 10% FBS, Penn/Strep, and 250 ug/mL G418. Novel compounds are 5 fold serially diluted in DMSO and added to 96 well plates containing 35,000 cells/well at a 1:200 dilution so that the final concentration of DMSO is 0.5%. On day 5, post treatment cell lysates and supernatants are harvested for analysis.
Cells are lysed using Agilent Sidestep Lysis buffer, diluted 1:100 and quantified via quantitative real time PCR. Commercially available ELISA kits are used to quantitate the viral proteins HBsAg (Alpco) or HBeAg (US Biological) by following the manufacturer's recommended protocol after diluting samples to match the linear range of their respective assays. Irrespective of readout, compound concentrations that reduce viral product accumulation in the cell lysates or supernatants by 50% relative to no drug controls (EC50) are reported; EC50 ranges are as follows: A<0.1 μM; B 0.1-1 μM; C>1 μM.

In series [1], `CC(C)(C)[C@@H]1Cc2c(oc3c(-c4cnsc4)cccc23)-c2c(F)c(=O)c(C(=O)O)cn21` [Example 52, (S)-6-(tert-butyl)-1-fluoro-11-(isothiazol-4-yl)-2-oxo-6,7-dihydro-2H-benzofuro[2,3-a]quinolizine-3-carboxylic acid] showed a half-maximal cytotoxic concentration (CC50) at 3 days greater than 25 µM. In the series with 2.2.15 cells, this compound returned a 50% effective concentration (EC50) of less than 0.1 µM.

In series [1], `CC(C)(C)[C@@H]1Cc2c(oc3cc(-c4ccn[nH]4)ccc23)-c2cc(=O)c(C(=O)O)cn21` [Example 14, (S)-6-(tert-butyl)-2-oxo-10-(1H-pyrazol-5-yl)-6,7-dihydro-2H-benzofuro[2,3-a]quinolizine-3-carboxylic acid] came in with a CC50 at 3 days greater than 25 µM. In the series with 2.2.15 cells, this compound registered an EC50 of less than 0.1 µM.

On to `CC(C)(C)[C@@H]1Cc2c(oc3cc(-c4cn[nH]c4)ccc23)-c2cc(=O)c(C(=O)O)cn21` [Example 13, (S)-6-(tert-butyl)-2-oxo-10-(1H-pyrazol-4-yl)-6,7-dihydro-2H-benzofuro[2,3-a]quinolizine-3-carboxylic acid], for which the CC50 at 3 days in series [1] was greater than 25 µM. In the series with 2.2.15 cells, this compound showed a concentration giving a half-maximal response (EC50) of less than 0.1 µM.

As for `CCc1ccc2c3c(oc2c1)-c1cc(=O)c(C(=O)O)cn1[C@H](C(C)(C)C)C3` [Example 25, (S)-6-(tert-butyl)-10-ethyl-2-oxo-6,7-dihydro-2H-benzofuro[2,3-a]quinolizine-3-carboxylic acid], the 50% cytotoxic concentration (CC50) at 3 days in series [1] was greater than 25 µM. This compound also yielded an EC50 with 2.2.15 cells of less than 0.1 µM.

The compound `CC(C)[C@@H]1Cc2c(oc3c(-c4ccco4)cccc23)-c2cc(=O)c(C(=O)O)cn21` [Example 67, (S)-11-(furan-2-yl)-6-isopropyl-2-oxo-6,7-dihydro-2H-benzofuro[2,3-a]quinolizine-3-carboxylic acid] had a CC50 at 3 days in series [1] of 10 to 25 µM. Besides, the EC50 in the series with 2.2.15 cells was less than 0.1 µM.

In series [1], `CC(C)(C)[C@@H]1Cc2c(oc3c(C#N)cccc23)-c2c(F)c(=O)c(C(=O)O)cn21` [Example 53, (S)-6-(tert-butyl)-11-cyano-1-fluoro-2-oxo-6,7-dihydro-2H-benzofuro[2,3-a]quinolizine-3-carboxylic acid] showed a CC50 at 3 days greater than 25 µM. In the series with 2.2.15 cells, this compound gave an EC50 of less than 0.1 µM.

For `Cn1ccc(-c2cccc3c4c(oc23)-c2cc(=O)c(C(=O)O)cn2[C@H](C(C)(C)C)C4)n1` [Example 30, (S)-6-(tert-butyl)-11-(1-methyl-1H-pyrazol-3-yl)-2-oxo-6,7-dihydro-2H-benzofuro[2,3-a]quinolizine-3-carboxylic acid], in series [1], the CC50 at 3 days is 10 to 25 µM. Also, the 50% effective concentration (EC50) with 2.2.15 cells was less than 0.1 µM.

In series [1], `CC(C)(C)[C@@H]1Cc2c(oc3c(OC4CC4)cccc23)-c2cc(=O)c(C(=O)O)cn21` [Example 47, (S)-6-(tert-butyl)-11-cyclopropoxy-2-oxo-6,7-dihydro-2H-benzofuro[2,3-a]quinolizine-3-carboxylic acid] gave a CC50 at 3 days of 10 to 25 µM. Besides, the 50% effective concentration (EC50) in the series on 2.2.15 cells is less than 0.1 µM.

`Cn1nccc1-c1ccc2c3c(oc2c1)-c1cc(=O)c(C(=O)O)cn1[C@H](C(C)(C)C)C3` [Example 11, (S)-6-(tert-butyl)-10-(1-methyl-1H-pyrazol-5-yl)-2-oxo-6,7-dihydro-2H-benzofuro[2,3-a]quinolizine-3-carboxylic acid] gave a CC50 at 3 days in series [1] greater than 25 µM. In addition, the half-maximal effective concentration (EC50) with 2.2.15 cells was less than 0.1 µM.

Compound `CC(C)(C)[C@@H]1Cc2c(oc3cc(-c4nccs4)ccc23)-c2cc(=O)c(C(=O)O)cn21` [Example 21, (S)-6-(tert-butyl)-2-oxo-10-(thiazol-2-yl)-6,7-dihydro-2H-benzofuro[2,3-a]quinolizine-3-carboxylic acid] displayed a CC50 at 3 days in series [1] of 10 to 25 µM. In the series with 2.2.15 cells, the EC50 is less than 0.1 µM.

As to `CC(C)(C)[C@@H]1Cc2c(oc3c(OC4COC4)cccc23)-c2cc(=O)c(C(=O)O)cn21` [Example 46, (S)-6-(tert-butyl)-11-(oxetan-3-yloxy)-2-oxo-6,7-dihydro-2H-benzofuro[2,3-a]quinolizine-3-carboxylic acid], the CC50 at 3 days in series [1] was greater than 25 µM. In the series with 2.2.15 cells, the concentration giving a half-maximal response (EC50) was less than 0.1 µM.

`CC(C)(C)[C@@H]1Cc2c(oc3ccccc23)-c2cc(=O)c(C(=O)O)cn21` [Example 3, (S)-6-(tert-butyl)-2-oxo-6,7-dihydro-2H-benzofuro[2,3-a]quinolizine-3-carboxylic acid] displayed a CC50 at 3 days in series [1] greater than 25 µM. The compound also registered a concentration for a half-maximal effect (EC50) in the series with 2.2.15 cells of less than 0.1 µM.

`Cn1nccc1-c1cccc2c3c(oc12)-c1cc(=O)c(C(=O)O)cn1[C@H](C(C)(C)C)C3` [Example 28, (S)-6-(tert-butyl)-11-(1-methyl-1H-pyrazol-5-yl)-2-oxo-6,7-dihydro-2H-benzofuro[2,3-a]quinolizine-3-carboxylic acid]: in series [1], the CC50 at 3 days is greater than 25 µM. This compound gave an EC50 with 2.2.15 cells of less than 0.1 µM.

In series [1], `CC(C)[C@@H]1Cc2c(oc3c(-c4cccs4)cccc23)-c2cc(=O)c(C(=O)O)cn21` [Example 79, (S)-6-isopropyl-2-oxo-11-(thiophen-2-yl)-6,7-dihydro-2H-benzofuro[2,3-a]quinolizine-3-carboxylic acid] came in with a CC50 at 3 days of less than 10 µM. Besides, the EC50 in the series on 2.2.15 cells was less than 0.1 µM.

For the compound `CC(C)(C)[C@@H]1Cc2c(oc3c(-c4cscn4)cccc23)-c2cc(=O)c(C(=O)O)cn21` [Example 39, (S)-6-(tert-butyl)-2-oxo-11-(thiazol-4-yl)-6,7-dihydro-2H-benzofuro[2,3-a]quinolizine-3-carboxylic acid], the CC50 at 3 days in series [1] fell in the range of 10 to 25 µM. In the series with 2.2.15 cells, this compound yielded a 50% effective concentration (EC50) of less than 0.1 µM.

`CC(C)(C)[C@@H]1Cc2c(oc3c(C#N)cccc23)-c2cc(=O)c(C(=O)O)cn21` [Example 31, (S)-6-(tert-butyl)-11-cyano-2-oxo-6,7-dihydro-2H-benzofuro[2,3-a]quinolizine-3-carboxylic acid]: in series [1], the cytotoxic concentration (CC50) at 3 days was greater than 25 µM. Further, the EC50 in the series with 2.2.15 cells is less than 0.1 µM.

Regarding `COc1cccc2c3c(oc12)-c1cc(=O)c(C(=O)O)cn1[C@H](C(C)(C)C)C3` [Example 45, (S)-6-(tert-butyl)-11-methoxy-2-oxo-6,7-dihydro-2H-benzofuro[2,3-a]quinolizine-3-carboxylic acid], in series [1], the CC50 at 3 days is greater than 25 µM. For the same compound, the 50% effective concentration (EC50) with 2.2.15 cells was less than 0.1 µM.

In series [1], `CC(C)(C)[C@@H]1Cc2c(oc3c(-c4cnsc4)cccc23)-c2cc(=O)c(C(=O)O)cn21` [Example 38, (S)-6-(tert-butyl)-11-(isothiazol-4-yl)-2-oxo-6,7-dihydro-2H-benzofuro[2,3-a]quinolizine-3-carboxylic acid] yielded a CC50 at 3 days of 10 to 25 µM. The compound also displayed an EC50 in the series with 2.2.15 cells of less than 0.1 µM.

In series [1], `CC(C)(C)[C@@H]1Cc2c(oc3c(-c4ccco4)cccc23)-c2cc(=O)c(C(=O)O)cn21` [Example 34, (S)-6-(tert-butyl)-11-(furan-2-yl)-2-oxo-6,7-dihydro-2H-benzofuro[2,3-a]quinolizine-3-carboxylic acid] yielded a 50% cytotoxic concentration (CC50) at 3 days of 10 to 25 µM. Also, in the series with 2.2.15 cells, the EC50 is less than 0.1 µM.

`CC(C)(C)[C@@H]1Cc2c(oc3c(-c4ccco4)cccc23)-c2c(F)c(=O)c(C(=O)O)cn21` [Example 49, (S)-6-(tert-butyl)-1-fluoro-11-(furan-2-yl)-2-oxo-6,7-dihydro-2H-benzofuro[2,3-a]quinolizine-3-carboxylic acid] came in with a CC50 at 3 days in series [1] greater than 25 µM. In addition, the EC50 in the series with 2.2.15 cells is less than 0.1 µM.

As for `Cc1cccc2c3c(oc12)-c1cc(=O)c(C(=O)O)cn1[C@H](C(C)C)C3` [Example 82, (S)-6-isopropyl-11-methyl-2-oxo-6,7-dihydro-2H-benzofuro[2,3-a]quinolizine-3-carboxylic acid], in series [1], the CC50 at 3 days was greater than 25 µM. In addition, the EC50 with 2.2.15 cells is less than 0.1 µM.

In series [1], `CC(C)[C@@H]1Cc2c(oc3c(-c4cnsc4)cccc23)-c2cc(=O)c(C(=O)O)cn21` [Example 70, (S)-6-isopropyl-11-(isothiazol-4-yl)-2-oxo-6,7-dihydro-2H-benzofuro[2,3-a]quinolizine-3-carboxylic acid] gave a cytotoxic concentration (CC50) at 3 days greater than 25 µM. The EC50 in the series on 2.2.15 cells is less than 0.1 µM.

In series [1], `CC(C)(C)[C@@H]1Cc2c(oc3c(-c4ccoc4)cccc23)-c2c(F)c(=O)c(C(=O)O)cn21` [Example 48, (S)-6-(tert-butyl)-1-fluoro-11-(furan-3-yl)-2-oxo-6,7-dihydro-2H-benzofuro[2,3-a]quinolizine-3-carboxylic acid] came in with a CC50 at 3 days greater than 25 µM. The EC50 with 2.2.15 cells is less than 0.1 µM.

`CC(C)(C)[C@@H]1Cc2c(oc3c(-c4ccn[nH]4)cccc23)-c2c(F)c(=O)c(C(=O)O)cn21` [Example 51, (S)-6-(tert-butyl)-1-fluoro-2-oxo-11-(1H-pyrazol-5-yl)-6,7-dihydro-2H-benzofuro[2,3-a]quinolizine-3-carboxylic acid] registered a CC50 at 3 days in series [1] greater than 25 µM. This compound had a 50% effective concentration (EC50) with 2.2.15 cells of less than 0.1 µM.

Regarding `CC(C)(C)[C@@H]1Cc2c(oc3c(-c4ccsc4)cccc23)-c2c(F)c(=O)c(C(=O)O)cn21` [Example 57, (S)-6-(tert-butyl)-1-fluoro-2-oxo-11-(thiophen-3-yl)-6,7-dihydro-2H-benzofuro[2,3-a]quinolizine-3-carboxylic acid], in series [1], the CC50 at 3 days was greater than 25 µM. In the series with 2.2.15 cells, this compound came in with a concentration for a half-maximal effect (EC50) of less than 0.1 µM.

In series [1], `CC(C)(C)[C@@H]1Cc2c(oc3c(-c4ccoc4)cccc23)-c2cc(=O)c(C(=O)O)cn21` [Example 26, (S)-6-(tert-butyl)-11-(furan-3-yl)-2-oxo-6,7-dihydro-2H-benzofuro[2,3-a]quinolizine-3-carboxylic acid] came in with a cytotoxic concentration (CC50) at 3 days of 10 to 25 µM. Also, the concentration giving a half-maximal response (EC50) with 2.2.15 cells is less than 0.1 µM.

Values taken from patent US10865211B2 (ENANTA PHARMACEUTICALS, INC, priority 2018, dated 2020).
